Source: US20180312511A1, “SHORT-ACTING BENZODIAZEPINE DERIVATIVES, PREPARATION METHOD THEREFOR, AND USE THEREOF” (SICHUAN KELUN-BIOTECH BIOPHARMACEUTICAL CO., LTD., priority 2015, published 2018)

Columns and labels:
Kunming mice = assay: Drug-induced loss of righting reflex in mice; format: in vivo; conditions: 60 mg/kg, single bolus via tail vein
Excerpt: (§1) In anesthetic activity tests, latency generally refers to the period between the start of administration of a drug to a subject and the moment that the subject becomes unconscious. A short latency is desirable, since it represents fast onset of the drug.
(§2) The duration of anesthesia generally refers to the period between the moment that a subject becomes unconscious and the moment that the subject regains consciousness. The durations will be different for different animal models or animal species. An over-long duration of anesthesia may result in adverse suppressive effects on the cardiovascular and respiratory systems, such as side effects on the nervous system, including drowsiness, dizziness, etc.; at the same time, an over-short duration of anesthesia may affect the anesthetic effect, causing dose increase of anesthetic during surgery and other issues.
Kunming mice (male, 18-25 g) were randomly divided into several groups. After administering the drugs in a single bolus via the tail vein, the latency to loss of righting reflex and the duration of loss of righting reflex were recorded.

Rhesus monkeys = assay: Anesthetic effects in monkeys (loss of consciousness); format: in vivo; conditions: intravenous single bolus
Excerpt: as §1, §2
Rhesus monkeys (male, 5-6 kg) were randomly divided into several groups. After administering the drugs intravenously in a single bolus, the latency to and the duration of loss of consciousness were recorded.

[1] = tested on: GABA Cl− current, HEK293T cells; assay: Cellular GABA activation current via whole-cell patch clamp; format: cell-based; conditions: Homo sapiens, HEK-293T, with 1 μM GABA, holding potential −60 mV; for Emax at 30 µM: concentration 30 μM; for EC50: read-out: EC50 (concentration at half of Emax); for Emax at 10 µM: concentration 10 μM
Description: Test compounds were dissolved in external solution (NaCl 140 mM, KCl 4.7 mM, HEPES 10 mM. CaCl2 2 mM, glucose 11 mM, and MgCl2 1 mM, pH 7.4) at various concentrations. HEK293T cells were plated on glass cover slips, and incubated in DMEM medium at 37° C. and 5% CO2 for 24 h.
An HEKA EPC 10 USB patch clamp amplifier was used in the whole-cell recording of GABA Cl^− current. 1 μM GABA was used to excite Cl^− current. Cells were voltage clamped at a holding potential of −60 mV, and treated with the test compounds of different concentrations together with 1 μM of GABA. The Cl^− current induction effect of the test compounds on the same cell, the maximum percentage of current potentiation (Emax), and the concentration of test compounds at half of Emax (EC50) were recorded.

[2] = read-out: Emax (maximum percentage of current potentiation)

Compound | Latency to loss of righting reflex (Kunming mice) | Latency to loss of consciousness (Rhesus monkeys; 6 mg/kg) | Duration of loss of consciousness (Rhesus monkeys; 8 mg/kg) | Duration of loss of righting reflex (Kunming mice) | EC50 [1] | also measured
COC(=O)CC[C@@H]1N=C(c2ccccn2)c2cc(Br)ccc2-n2ccnc21 [Example 2, (S)-methyl 3-(8-bromo-6-(pyridin-2-yl)-4H-benzo[f]imidazo[1,2-a][1,4]diazepin-4-yl)propanoate] | 0.13 min | 3.92 min | 55.90 min |  |  | Duration of loss of consciousness (Rhesus monkeys; 6 mg/kg): 18.10 min; Emax at 30 µM [1, 2]: 358%
COC(=O)CC[C@@H]1N=C(c2ccccc2)c2cc(Cl)ccc2-n2cnnc21 [Example 3, (S)-methyl 3-(8-chloro-6-phenyl-4H-benzo[f][1,2,4]triazolo[4,3-a][1,4]diazepin-4-yl)propanoate] |  |  |  | 11.76 min | 950 nM | Emax at 30 µM [1, 2]: 325%
COC(=O)CC[C@@H]1N=C(c2ccccn2)c2cc(Br)ccc2-n2c(C)nnc21 [Example 4, (S)-methyl 3-(8-bromo-1-methyl-6-(pyridin-2-yl)-4H-benzo[f][1,2,4]triazolo[4,3-a][1,4]diazepin-4-yl)propanoate] |  |  | 45.00 min | 19.14 min | 980 nM | Emax at 30 µM [1, 2]: 472%
COC(=O)CC[C@@H]1N=C(c2ccccn2)c2cc(Br)ccc2-n2c(C3CC3)cnc21 [Example 5, (S)-methyl 3-(8-bromo-1-cyclopropyl-6-(pyridin-2-yl)-4H-benzo[f]imidazo[1,2-a][1,4]diazepin-4-yl)propanoate] |  |  |  | 23.33 min | 360 nM | Emax at 10 µM [1, 2]: 160%
[2H]Cc1cnc2n1-c1ccc(Br)cc1C(c1ccccn1)=N[C@H]2CCC(=O)OC [Example 6, (S)-methyl 3-(8-bromo-1-deuteromethyl-6-(pyridin-2-yl)-4H-benzo[f]imidazo[1,2-a][1,4]diazepin-4-yl)propanoate] | 0.17 min |  |  | 23.95 min |  | 
COC(=O)CC[C@@H]1N=C(c2ccccn2)c2cc(Br)ccc2-n2cnnc21 [Example 9, (S)-methyl 3-(8-bromo-6-(pyridin-2-yl)-4H-benzo[f][1,2,4]triazolo[4,3-a][1,4]diazepin-4-yl)propanoate] |  |  | 36.47 min | 12.88 min | 720 nM | Emax at 10 µM [1, 2]: 408%
COCc1cnc2n1-c1ccc(Br)cc1C(c1ccccn1)=N[C@H]2CCC(=O)OC [Example 10, (S)-methyl 3-(8-bromo-1-(methoxymethyl)-6-(pyridin-2-yl)-4H-benzo[f]imidazo[1,2-a][1,4]diazepin-4-yl)propanoate] |  | 4.00 min | 26.00 min | 17.27 min | 470 nM | Duration of loss of consciousness (Rhesus monkeys; 6 mg/kg): 26.00 min; Emax at 3 µM ([1]; concentration 3 μM, read-out: Emax (maximum percentage of current potentiation)): 197%
[2H]Cc1nnc2n1-c1ccc(Br)cc1C(c1ccccn1)=N[C@H]2CCC(=O)OC [Example 11, (S)-methyl 3-(8-bromo-1-deuteromethyl-6-(pyridin-2-yl)-4H-benzo[f][1,2,4]triazolo[4,3-a][1,4]diazepin-4-yl)propanoate] |  |  |  | 12.82 min | 400 nM | Emax at 30 µM [1, 2]: 319%
CCc1cnc2n1-c1ccc(Br)cc1C(c1ccccn1)=N[C@H]2CCC(=O)OC [Example 15, (S)-methyl 3-(8-bromo-1-ethyl-6-(pyridin-2-yl)-4H-benzo[f]imidazo[1,2-a][1,4]diazepin-4-yl)propanoate] | 0.24 min | 2.75 min |  |  |  | Duration of loss of consciousness (Rhesus monkeys; 4 mg/kg): 37.50 min; Latency to loss of consciousness (Rhesus monkeys; 4 mg/kg): 3.75 min; Duration of loss of consciousness (Rhesus monkeys; 6 mg/kg): 49.00 min
COC(=O)CC[C@@H]1N=C(c2ccccc2F)c2cc(Cl)ccc2-n2cnnc21 [Example 17, (S)-methyl 3-(8-chloro-6-(2-fluorophenyl)-4H-benzo[f][1,2,4]triazolo[4,3-a][1,4]diazepin-4-yl)propanoate] |  |  | 52.50 min | 18.51 min |  | 
COC(=O)CC[C@@H]1N=C(c2ccccc2F)c2cc(Cl)ccc2-n2c(C3CC3)nnc21 [Example 18, (S)-methyl 3-(8-chloro-1-cyclopropyl-6-(2-fluorophenyl)-4H-benzo[f][1,2,4]triazolo[4,3-a][1,4]diazepin-4-yl)propanoate] | 0.19 min | 5.09 min |  | 25.61 min | 470 nM | Duration of loss of consciousness (Rhesus monkeys; 1 mg/kg): 41.15 min; Latency to loss of consciousness (Rhesus monkeys; 1 mg/kg): 3.30 min; Latency to loss of consciousness (Rhesus monkeys; 4 mg/kg): 5.10 min; Emax at 10 µM [1, 2]: 347%
COC(=O)CC[C@@H]1N=C(c2ccccn2)c2cc(Cl)ccc2-n2c(C3CC3)cnc21 [Example 21, (S)-methyl 3-(8-chloro-1-cyclopropyl-6-(pyridin-2-yl)-4H-benzo[f]imidazo[1,2-a][1,4]diazepin-4-yl)propanoate] |  |  |  | 23.23 min |  | 
COC(=O)CC[C@@H]1N=C(c2ccccn2)c2cc(Cl)ccc2-n2c(C3CCC3)cnc21 [Example 29, (S)-methyl 3-(8-chloro-1-cyclobutyl-6-(pyridin-2-yl)-4H-benzo[f]imidazo[1,2-a][1,4]diazepin-4-yl)propanoate] | 0.21 min |  |  | 19.09 min |  | 
CCc1nnc2n1-c1ccc(Cl)cc1C(c1ccccn1)=N[C@H]2CCC(=O)OC [Example 30, (S)-methyl 3-(8-chloro-1-ethyl-6-(pyridin-2-yl)-4H-benzo[f][1,2,4]triazolo[4,3-a][1,4]diazepin-4-yl)propanoate] | 0.20 min |  |  | 17.74 min |  | 
COC(=O)CC[C@@H]1N=C(c2ccccn2)c2cc(Cl)ccc2-n2c(C(C)C)nnc21 [Example 31, (S)-methyl 3-(8-chloro-1-isopropyl-6-(pyridin-2-yl)-4H-benzo[f][1,2,4]triazolo[4,3-a][1,4]diazepin-4-yl)propanoate] | 0.16 min |  |  | 17.82 min |  | 
COC(=O)CC[C@@H]1N=C(c2ccccn2)c2cc(Br)ccc2-n2c(C)cnc21 [Remimazolam, reference compound] | 0.28 min | 5.50 min |  |  |  | Latency to loss of consciousness (Rhesus monkeys; 4 mg/kg): 5.34 min
